What was measured:
[1] = tested on: HPAC (CRL-2119) pancreatic cancer cell line; test: Proliferation assay (MTT); assay type: cell-based, human; conditions: Homo sapiens, HPAC, Table 2.2; Pancreatic HPAC; read-out: IC50
[2] = tested on: HT-29 (Colorectal); test: Proliferation assay (MTT); assay type: cell-based; conditions: Homo sapiens, HT-29, Table 2.2; Colorectal HT-29
Experimental: (§1) All cultures were supplemented with 10% FCS (fetal calf serum CSL, Australia), penicillin (100 U/ml), streptomycin ([…]), L-glutamine (2 mM) and sodium bicarbonate (1.2 g/L), and cultured at 37° C. in a humidified atmosphere of 5% CO2. All cell lines were purchased from ATCC (Maryland, USA) except where noted.
(§2) IC50 values were determined for each cell line. Cells were seeded in 96-well plates at an appropriate cell density as determined from growth kinetics analysis and cultured for 5 days in the absence and presence of the test compounds. Cell proliferation was assessed after the addition of 20 μl of 3-4,5 dimethylthiazol-2,5-diphenyl tetrazolium bromide (MTT, 2.5 mg/ml in PBS, Sigma) for 3-4 hrs at 37° C. according to manufacturer's instructions. IC50 values were calculated from semi-log plots of % of control proliferation on the y-axis against log dose on the x-axis.

[3] = tested on: PC3 prostate cancer cell line; test: Proliferation assay (MTT); assay type: cell-based; conditions: Table 2.2
Experimental: as §1, §2

[4] = tested on: HTB-138 (Glioma); test: Proliferation assay (MTT); assay type: cell-based; conditions: Table 2.2; Glioma HTB-138
Experimental: as §1, §2

[5] = tested on: NCI-H460 (Lung); test: Proliferation assay (MTT); assay type: cell-based; conditions: Homo sapiens, NCI-H460, Table 2.2; NSC Lung NCI-H460
Experimental: as §1, §2

[6] = tested on: CCRF-CEM (Leukemic); test: Proliferation assay (MTT); assay type: cell-based; conditions: Homo sapiens, CCRF-CEM, Table 2.2; Leukaemia CCRF-CEM
Experimental: as §1, §2

[7] = tested on: CP70 ovarian cancer cell line; test: Proliferation assay (MTT); assay type: cell-based; conditions: Table 2.2 (further studies); Ovarian CP70; read-out: IC50
[8] = tested on: TXB2; test: Eicosanoid synthesis in LPS-stimulated murine macrophages (RAW 264.7); assay type: cell-based, mouse; conditions: 10 μM; negative values indicate inhibition
Experimental: (§3) The mouse macrophage cell line RAW 264.7 was cultured in DMEM supplemented with foetal calf serum (FCS), 2 mM glutamine and 50 U/ml penicillin/streptomycin. Subconfluent cells were detached from the flask by gentle scraping and 24-well plates seeded at 5×10^5 cells per well and allowed to adhere for 1 hr. Cells were then treated either test compound at a concentration of 10 μM (in 0.025% DMSO) or vehicle alone, and incubated for 1 hr. LPS 50 ng/ml (LPS—Sigma-Aldrich) was then added. After incubation for 16 hrs, culture media was collected and stored at −80° C. for ecosanoid measurements using enzyme immunometric assays (PGE2 and TXB2—Cayman Chemical).
(§4) Table 16: Percentage change in eicosanoid synthesis after incubating test compound at 10 μM compared with incubation with vehicle alone.

[9] = tested on: PGE2; test: as above; assay type: cell-based, mouse; conditions: 10 μM; negative values indicate inhibition
Experimental: as §3, §4

[10] = tested on: MDA-MB-468 breast cancer cell line; test: Proliferation assay (MTT); assay type: cell-based; conditions: Homo sapiens, MDA-MB-468, Table 2.2; Breast MDA-MB-468; read-out: IC50
[11] = tested on: MM200 melanoma cell line; test: Proliferation assay (MTT); assay type: cell-based; conditions: Table 2.2; Melanoma MM200; read-out: IC50
[12] = tested on: TNFα; test: Inhibition of TNFα in LPS-stimulated murine macrophages (RAW 264.7); assay type: cell-based, mouse; conditions: for Inhibition of TNFα, dose dependence: over the concentration ranges tested
Experimental: The mouse macrophage cell line RAW 264.7 was cultured in DMEM supplemented with FCS, 2 mM glutamine and 50 U/ml penicillin/streptomycin. Subconfluent cells were detached from the flask by gentle scraping and 24-well plates seeded at 5×10^5 cells per well and allowed to adhere for 1 hr. Cells were treated with either test agent (in 0.025% DMSO) or vehicle alone, 1 hr prior to the addition of 50 ng/ml LPS. After incubation for 16 hrs, culture media was collected and stored at −80° C. for TNFα measurement using an enzyme immunometric assay (Becton Dickinson).

[13] = tested on: Mel-RM melanoma cell line; test: HMC combination with doxorubicin (synergy); assay type: cell-based; conditions: Table 12, single agent
Experimental: (§5) IC50 values were determined for each cell line. Cells were seeded in 96-well plates at an appropriate cell density as determined from growth kinetics analysis and cultured for 5 days in the absence and presence of the test compounds. […] IC50 values were calculated from semi-log plots of % of control proliferation on the y-axis against log dose on the x-axis.
(§6) 3-D model analysis of the cytotoxic interaction between drug A and drug B enables the representation of predicted inhibitory effect of two drugs in combination in 3 dimensions to reveal actual regions of synergy or antagonism. […] Theoretical Additivity was calculated from the cytotoxicities of drug A and drug B as monotherapies using the following formula which assumes the drugs are mutually exclusive inhibitors: […]
HMC synergy with doxorubicin was assessed either in combination over 5 days exposure or in sequence (HMC→doxorubicin) against the Mel-RM melanoma cell line.

[14] = tested on: Mel-RM melanoma cell line; test: HMC combination with gemcitabine (synergy); assay type: cell-based; conditions: Table 9, single agent
Experimental: as §2
(§7) 3-D model analysis of the cytotoxic interaction between drug A and drug B enables the representation of predicted inhibitory effect of two drugs in combination in 3 dimensions to reveal actual regions of synergy or antagonism. The 3D synergy plots are based on a theory of “Theretical Additivity” (TA) as outlined by Kanzawa et al (Int. J. Cancer 71, 311-319 (1997)). Theoretical Additivity was calculated from the cytotoxicities of drug A and drug B as monotherapies using the following formula which assumes the drugs are mutually exclusive inhibitors: […]
(§8) The TA is calculated for each combination of drug concentrations and subtracted from the observed experimental effect for each combination to give a measurement of synergisitic action.
HMC synergy with gemcitabine was assessed either in combination over 5 days exposure or in sequence (HMC→gemcitabine) against the Mel-RM melanoma cell line. It was difficult to assess for synergisitic toxicity using a change in IC50 as a measure of synergy due to HMC toxicity as monotherapy (Table 9). […] Evidence of synergy using the HMC-gemcitabine combination was further assessed using the HMC→gemcitabine sequence (24 hr exposure to each compound in sequence) against the melanoma cell line Mel-RM. Using change in IC50 to assess for synergy it was noted that HMC at concentrations of 2 and 1 μM markedly chemosensitised the Mel-RM cells to gemcitabine by >1000 fold. HMC-induced chemosensitisation of Mel-RM cells to gemcitabine was confirmed using 3D analysis of the data.

[15] = tested on: 4405 melanoma cell line; test: HMC combination with paclitaxel (synergy); assay type: cell-based; conditions: Table 10; single agent, 24 hr exposure; read-out: IC50, 24 hr (monotherapy)
Experimental: as §2, §7, §8
HMC synergy with paclitaxel was assessed either in combination over 5 days exposure or in sequence (HMC→paclitaxel) against the 4405 melanoma cell line. It was difficult to assess for synergisitic toxicity using a change in IC50 as a measure of synergy due to HMC toxicity as monotherapy (Table 10). […] Evidence of synergy using the HMC-paclitaxel combination was further assessed using the HMC→paclitaxel sequence (24 hr exposure to each compound in sequence) against the melanoma cell line 4405. Using change in IC50 to assess for synergy it was noted that HMC at concentrations of 2 μM markedly chemosensitised the 4405 cells to paclitaxel by >1000 fold (Table 10). HMC-induced chemosensitisation of […] cells to paclitaxel was confirmed using 3D analysis of the data.

[16] = tested on: MM200 melanoma cell line; test: HMC combination with topotecan (synergy); assay type: cell-based; conditions: Table 11, single agent
Experimental: as §5, §6
HMC synergy with topotecan was assessed either in combination over 5 days exposure or in sequence (HMC→topotecan) against the MM200 melanoma cell line.

[17] = Concentration 10 μM, RAW 264.7, LPS 50 ng/ml, 16 hrs
[18] = 120 h, 5 days exposure, read-out: IC50, Combined (monotherapy)
[19] = 24 hr exposure, read-out: IC50, 24 hr (monotherapy)

Row | SMILES | IC50 [1] | IC50 [2] | IC50 [3] | IC50 [4] | IC50 [6] | IC50 [7] | IC50 [10] | IC50 [11] | Inhibition of TNFα ([12]; Concentration 0.001 μM) | Inhibition of TNFα ([12]; Concentration 0.1 μM) | Inhibition of TNFα ([12]; Concentration 1 μM) | Inhibition of TNFα [12, 17] | other results
1 | COc1ccc(C2c3ccc(O)cc3OCC2c2ccc(OC)c(OC)c2)cc1 (stereo not shown) [Compound 4, 3-(3,4-dimethoxyphenyl)-4-(4-methoxyphenyl)chroman-7-ol] | – | – | – | – | – | – | – | – | −14.3 | −6.3 | −11.9 | −6.1 | Inhibition of TNFα ([12]; Concentration 0.01 μM): −11.3
2 | COc1cc(O)cc(OC)c1C1c2ccc(O)cc2OCC1c1ccc(O)cc1 (stereo not shown) [Compound 7, 3-(4-hydroxyphenyl)-4-(2,6-dimethoxy-4-hydroxyphenyl)chroman-7-ol] | – | – | – | – | – | – | – | – | 19.2 | −1.4 | −25.4 | −26.2 | Inhibition of TNFα, dose dependence [12]: inhibit TNFα in murine macrophages in a dose dependent manner
3 | COc1cccc2c1C(=O)c1c(O)c3c(c(O)c1C2=O)C[C@@](O)(C(=O)CO)C[C@@H]3O[C@H]1C[C@H](N)[C@H](O)[C@H](C)O1 [Doxorubicin, doxorubicin, reference compound] | – | – | – | – | – | – | – | – | – | – | – | – | IC50 [13, 18]: 0.19 µM; IC50 [13, 19]: 0.1 µM
4 | Nc1ccn([C@@H]2O[C@H](CO)[C@@H](O)C2(F)F)c(=O)n1 [Gemcitabine, gemcitabine, reference compound] | – | – | – | – | – | – | – | – | – | – | – | – | IC50 [14, 18]: 0.00388 µM; IC50 [14, 19]: 0.00467 µM
5 | CC(=O)O[C@H]1C(=O)[C@@]2(C)[C@H]([C@H](OC(=O)c3ccccc3)[C@]3(O)C[C@H](OC(=O)[C@H](O)[C@@H](NC(=O)c4ccccc4)c4ccccc4)C(C)=C1C3(C)C)[C@]1(OC(C)=O)CO[C@@H]1C[C@@H]2O [Paclitaxel, paclitaxel, reference compound] | – | – | – | – | – | – | – | – | – | – | – | – | IC50 [15]: 0.000584 µM
6 | CC[C@@]1(O)C(=O)OCc2c1cc1n(c2=O)Cc2cc3c(CN(C)C)c(O)ccc3nc2-1 [Topotecan, topotecan, reference compound] | – | – | – | – | – | – | – | – | – | – | – | – | IC50 [16, 18]: 0.095 µM; IC50 [16, 19]: 2.22 µM

The next lines start with results.

Row | IC50 [1] | IC50 [2] | IC50 [3] | IC50 [4] | IC50 [6] | IC50 [7] | IC50 [10] | IC50 [11] | SMILES | Inhibition of TNFα ([12]; Concentration 0.001 μM) | Inhibition of TNFα ([12]; Concentration 0.1 μM) | Inhibition of TNFα ([12]; Concentration 1 μM) | Inhibition of TNFα [12, 17] | other results
7 | 24.4 ± 12 µM | 59.4 µM | 4.2 ± 0.02 µM | 3.77 µM | 4.02 µM | 3 ± 1.2 µM | 1.9 µM | 7.34 µM | Oc1ccc(C2COc3cc(O)ccc3C2c2ccccc2)cc1 (stereo not shown) [Compound 2, 3-(4-hydroxyphenyl)-4-phenylchroman-7-ol] | – | – | – | – | IC50 [5]: 5.4 ± 2.1 µM; Percentage change in TXB2 synthesis vs vehicle alone [8]: 16%; Percentage change in PGE2 synthesis vs vehicle alone [9]: −12.6%
8 | > 100 µM | > 100 µM | 116 ± 57 µM | > 100 µM | 92 ± 81.6 µM | > 100 µM | 28.7 ± 3.6 µM | > 100 µM | COc1ccc(C2COc3cc(OC)ccc3C2c2ccc(OC)cc2)cc1 (stereo not shown) [Compound 6, 3-(4-methoxyphenyl)-4-(4-methoxyphenyl)-7-methoxychroman] | 1.0 | −10.4 | −13.0 | −48.7 | Inhibition of TNFα, dose dependence [12]: inhibit TNFα in murine macrophages in a dose dependent manner; Percentage change in TXB2 synthesis vs vehicle alone [8]: −16.4%; Percentage change in PGE2 synthesis vs vehicle alone [9]: −37.7%
9 | 79 ± 56 µM | 45 ± 4.7 µM | 32.5 ± 2.1 µM | 53.5 ± 14 µM | 73 ± 51.6 µM | > 100 µM | 56.6 µM | 93 ± 2.9 µM | Nc1cccc(C2c3ccc(O)cc3OCC2c2ccc(O)cc2)c1 (stereo not shown) [Compound 14, 3-(4-hydroxyphenyl)-4-(3-aminophenyl)chroman-7-ol] | – | – | – | – | IC50 [5]: 65 µM

From patent US8163795B2, “Chroman derivatives, medicaments and use in therapy” (Marshall Edwards, Inc., priority 2004, dated 2012)
